Data on 16 molecules can be found in ChEMBL document CHEMBL1201862, “PubChem BioAssay data set” (2004).

The source made the active and inactive calls.

The nature of assay [1]: off-target signal loss in HeLa-CEM21 co-culture – HeLa F-luc CTL cells, cherry-picked, counter-screen for HIV-1 Env fusion inhibitor project, dose response (AID 652040).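 Also: potency for signal decrease marking cytotoxic or nonspecific inhibition.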 Format: functional, cell-based. For orientation: The purpose of a counterscreen is to sort out artefacts and off-target activity.
Assay [2] is described as follows: blockers of HIV-1 ZM109 envelope-driven cell-cell fusion – HeLa effector, CEM target cells, luciferase, cherry-pick, dose response (AID 652058).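 Also: luciferase signal from HIV-1 Env mediated cell-cell fusion of effector and target cells.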 Format: functional, cell-based.
Assay [3] is described as follows: HIV-1 AD8 envelope cell-cell fusion blockers – cherry-pick, dose response (AID 652062).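 Also: luciferase signal from cell-cell fusion driven by HIV-1 clade B AD8 Env; potency is for inhibitors of fusion seen as a drop in luminescence.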 Type of assay: functional, cell-based.
The nature of assay [4]: blockers of HIV-1 envelope-mediated cell-cell fusion – cherry-pick, dose response (AID 652057). Format: functional, cell-based.
Assay [5] is described as follows: intracellular Trypanosoma cruzi inhibitors in host cells – cell-based, plate reader, cherry-pick samples, set 3, dose response (AID 651818).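 Also: compounds incubated with infected cells for about four days.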 Format: functional.
Assay [6] has as its target T1, Long-chain-fatty-acid--AMP ligase FadD28 (Mycobacterium tuberculosis, UniProt P9WQ59).
T1 sequence (P9WQ59 whole entry): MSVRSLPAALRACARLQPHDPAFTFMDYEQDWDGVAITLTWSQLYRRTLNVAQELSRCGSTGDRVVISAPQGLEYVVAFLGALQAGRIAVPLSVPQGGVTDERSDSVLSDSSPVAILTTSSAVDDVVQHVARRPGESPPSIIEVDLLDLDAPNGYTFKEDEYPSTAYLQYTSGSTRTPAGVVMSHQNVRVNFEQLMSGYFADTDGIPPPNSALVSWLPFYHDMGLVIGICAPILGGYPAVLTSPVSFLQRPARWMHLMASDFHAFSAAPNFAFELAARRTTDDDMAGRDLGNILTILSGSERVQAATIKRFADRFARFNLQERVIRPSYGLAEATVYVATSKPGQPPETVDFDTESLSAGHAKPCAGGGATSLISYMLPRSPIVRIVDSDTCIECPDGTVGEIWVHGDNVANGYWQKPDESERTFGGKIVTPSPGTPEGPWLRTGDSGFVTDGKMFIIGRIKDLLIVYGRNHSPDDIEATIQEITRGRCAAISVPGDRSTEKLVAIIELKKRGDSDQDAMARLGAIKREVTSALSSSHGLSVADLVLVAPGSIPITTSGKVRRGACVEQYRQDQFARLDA
Put plainly: Fluorescence polarization aasay to screen for inhibitors that compete for the binding of FadD28 to a bisubstrate Measured in Biochemical System Using Plate Reader - 2147-01_Inhibitor_Dose_CherryPick_Activity. Format: functional, Mycobacterium tuberculosis H37Rv. For orientation: In fluorescence polarisation assays a small probe gives low polarisation when free and higher when bound to something large.

The test system of a further assay is P388/ADR. Put plainly: cells. Format: functional. The conditions noted are these: Mus musculus.
For the next assay, the system named is SN12K1. In words: cells. Format: functional. The settings on record: Homo sapiens.
Assay [7] has as its target T2, Apoptotic protease-activating factor 1 (Homo sapiens, UniProt O14727).
T2 sequence (O14727 whole entry): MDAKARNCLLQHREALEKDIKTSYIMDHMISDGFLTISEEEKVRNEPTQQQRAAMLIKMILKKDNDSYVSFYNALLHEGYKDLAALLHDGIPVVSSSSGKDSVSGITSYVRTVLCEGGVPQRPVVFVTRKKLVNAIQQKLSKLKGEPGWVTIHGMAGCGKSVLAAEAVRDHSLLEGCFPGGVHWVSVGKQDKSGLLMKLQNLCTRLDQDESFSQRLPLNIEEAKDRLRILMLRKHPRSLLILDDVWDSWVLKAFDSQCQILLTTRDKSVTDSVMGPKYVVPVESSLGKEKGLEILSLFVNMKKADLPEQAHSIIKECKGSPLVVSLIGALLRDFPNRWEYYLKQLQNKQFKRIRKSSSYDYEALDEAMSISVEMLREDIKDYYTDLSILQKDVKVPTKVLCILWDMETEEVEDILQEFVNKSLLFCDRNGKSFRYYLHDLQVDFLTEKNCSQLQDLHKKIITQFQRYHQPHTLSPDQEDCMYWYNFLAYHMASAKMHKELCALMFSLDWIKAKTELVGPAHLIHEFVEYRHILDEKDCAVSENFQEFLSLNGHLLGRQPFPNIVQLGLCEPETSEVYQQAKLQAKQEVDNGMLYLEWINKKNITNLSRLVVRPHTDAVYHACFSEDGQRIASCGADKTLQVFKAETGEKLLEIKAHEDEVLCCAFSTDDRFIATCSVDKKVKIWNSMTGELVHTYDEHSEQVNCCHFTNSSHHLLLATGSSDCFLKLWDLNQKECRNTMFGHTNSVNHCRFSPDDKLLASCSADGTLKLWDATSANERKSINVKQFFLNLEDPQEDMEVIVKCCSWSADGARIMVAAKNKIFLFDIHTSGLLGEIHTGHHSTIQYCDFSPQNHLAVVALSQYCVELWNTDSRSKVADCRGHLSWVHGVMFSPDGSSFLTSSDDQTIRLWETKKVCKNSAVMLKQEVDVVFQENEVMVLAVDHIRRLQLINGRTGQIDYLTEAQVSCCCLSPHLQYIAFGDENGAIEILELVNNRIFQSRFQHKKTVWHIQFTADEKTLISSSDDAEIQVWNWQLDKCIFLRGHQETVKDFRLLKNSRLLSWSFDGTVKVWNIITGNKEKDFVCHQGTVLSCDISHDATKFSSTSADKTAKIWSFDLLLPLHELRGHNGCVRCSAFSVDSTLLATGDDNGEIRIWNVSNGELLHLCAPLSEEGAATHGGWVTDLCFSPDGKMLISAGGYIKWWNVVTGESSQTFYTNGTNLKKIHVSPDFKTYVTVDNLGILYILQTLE
Format: functional.

Assay [8] is described as follows: Luminescence Cell-Based Dose Retest to Confirm Inhibitors of Cancer Stem Cells. [Related pubchem assays (depositor defined):AID2717, AID2721]. The conditions noted are these: Homo sapiens. Type of assay: functional.
In assay [9] the target is T3, Replicative DNA helicase DnaB (Mycobacterium tuberculosis, UniProt P9WMR3).
T3 sequence (P9WMR3 whole entry): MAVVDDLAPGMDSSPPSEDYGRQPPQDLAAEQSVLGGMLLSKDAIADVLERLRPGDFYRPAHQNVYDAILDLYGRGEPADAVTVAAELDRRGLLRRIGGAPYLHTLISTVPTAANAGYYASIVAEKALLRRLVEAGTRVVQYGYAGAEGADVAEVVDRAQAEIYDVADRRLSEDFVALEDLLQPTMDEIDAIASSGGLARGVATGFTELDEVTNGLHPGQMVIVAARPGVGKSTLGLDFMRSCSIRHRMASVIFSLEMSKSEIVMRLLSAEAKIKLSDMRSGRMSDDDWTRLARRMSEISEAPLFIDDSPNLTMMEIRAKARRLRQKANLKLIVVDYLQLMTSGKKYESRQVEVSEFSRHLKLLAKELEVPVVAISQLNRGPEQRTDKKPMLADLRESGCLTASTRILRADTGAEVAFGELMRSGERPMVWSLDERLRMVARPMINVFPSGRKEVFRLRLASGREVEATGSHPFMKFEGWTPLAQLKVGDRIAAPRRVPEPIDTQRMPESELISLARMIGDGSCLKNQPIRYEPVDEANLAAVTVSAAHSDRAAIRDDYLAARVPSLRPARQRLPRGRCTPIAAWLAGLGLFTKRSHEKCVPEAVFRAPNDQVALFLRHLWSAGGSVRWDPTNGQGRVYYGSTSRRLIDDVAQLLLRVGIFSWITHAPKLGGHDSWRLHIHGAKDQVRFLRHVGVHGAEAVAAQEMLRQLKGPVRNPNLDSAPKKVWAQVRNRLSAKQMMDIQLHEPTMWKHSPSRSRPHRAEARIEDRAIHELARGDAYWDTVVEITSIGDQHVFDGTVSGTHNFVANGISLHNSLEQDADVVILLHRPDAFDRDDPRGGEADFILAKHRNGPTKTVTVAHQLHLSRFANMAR
Put plainly: DnaB intein splicing inhibitors, dose response, biochemical, cell-free fluorescence (AID 449749). Type of assay: functional.

Assay [10] concerns the target T4, Sentrin-specific protease 8 (Homo sapiens, UniProt Q96LD8).
T4 sequence (Q96LD8 whole entry): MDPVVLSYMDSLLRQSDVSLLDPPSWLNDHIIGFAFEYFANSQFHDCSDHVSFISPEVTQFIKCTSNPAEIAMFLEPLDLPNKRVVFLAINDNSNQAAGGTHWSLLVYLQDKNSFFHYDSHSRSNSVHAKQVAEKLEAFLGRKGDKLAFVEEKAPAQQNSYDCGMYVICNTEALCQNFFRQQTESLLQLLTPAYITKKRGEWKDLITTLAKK
Format: functional.

For the next assay, the target named is T5, Protein RecA (Mycobacterium tuberculosis, UniProt P9WHJ3).
T5 sequence (P9WHJ3 whole entry): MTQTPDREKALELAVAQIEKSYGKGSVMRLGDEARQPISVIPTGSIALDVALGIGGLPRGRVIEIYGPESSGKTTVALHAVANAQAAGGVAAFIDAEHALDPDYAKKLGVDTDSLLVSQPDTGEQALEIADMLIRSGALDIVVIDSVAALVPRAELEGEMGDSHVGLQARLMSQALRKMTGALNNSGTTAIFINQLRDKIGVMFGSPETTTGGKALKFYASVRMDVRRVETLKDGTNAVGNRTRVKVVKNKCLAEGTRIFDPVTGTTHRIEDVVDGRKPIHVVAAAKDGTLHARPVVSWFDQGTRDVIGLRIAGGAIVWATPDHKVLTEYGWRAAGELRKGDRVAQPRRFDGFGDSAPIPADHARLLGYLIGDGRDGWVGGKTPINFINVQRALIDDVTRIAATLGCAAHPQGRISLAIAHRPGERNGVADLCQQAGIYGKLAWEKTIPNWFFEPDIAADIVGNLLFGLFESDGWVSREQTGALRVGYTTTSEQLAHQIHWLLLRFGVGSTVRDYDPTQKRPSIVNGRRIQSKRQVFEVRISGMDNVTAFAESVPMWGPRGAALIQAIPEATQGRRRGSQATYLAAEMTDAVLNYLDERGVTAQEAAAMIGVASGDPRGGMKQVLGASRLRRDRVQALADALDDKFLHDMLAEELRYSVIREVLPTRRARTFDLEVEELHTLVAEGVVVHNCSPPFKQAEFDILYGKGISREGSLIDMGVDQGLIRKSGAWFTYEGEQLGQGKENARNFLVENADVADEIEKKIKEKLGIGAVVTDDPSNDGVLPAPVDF
In words: Fluorescence Cell-Free Homogeneous Dose Retest to Identify Inhibitors of RecA-Intein Splicing Activity. [Related pubchem assays (depositor defined):AID2097, AID2223, AID489010, AID492950]. Format: functional.

Assay [11] deals with T4, Sentrin-specific protease 8. Format: functional. This is another data set of the same source.
The nature of assay [12]: activation of miR-122 Renilla sensor silencing – cell-based, Huh7 psiCHECK-miR122, Renilla luciferase, cherry-picked, dose response (AID 651956).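 Also: huh7 hepatoma cells stably carrying a psiCHECK-2 miR-122 sensor plasmid; renilla luciferase signal reporting endogenous miR-122 activity after 48 h compound exposure.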 Format: functional.

`O=C(C[C@@H]1C/C=C/CC[C@@H](Cc2ccc(F)cc2)C(=O)O[C@H](c2ccccc2)CNC1=O)NCCO`: the concentration at half-maximal activity (AC50) was 6.16 µM (active) in assay [1], 5.4 µM (active) in [2], 6.44 µM (active) in [3] and 5.18 µM (active) in assay [4]. Take `C[C@@H]1CN([C@H](C)CO)C(=O)Cc2cc(NC(=O)Nc3cccc4ccccc34)ccc2O[C@@H]1CN(C)Cc1ccc2c(c1)OCO2`: the AC50 in [5] was 2.61 µM (active). As for `CCOc1cc(/C=C2/NC(=O)N(CC(=O)Nc3cccc(C)c3)C2=O)ccc1O`, in assay [6], the AC50 is 51.7 µM (active). In the case of `CC(C)NS(=O)(=O)c1ccc(OCC(=O)N2CCN(Cc3ccc4c(c3)OCO4)CC2)c(Cl)c1`, the AC50 was 29.7 µM (active) in assay [1], 1.86 µM (active) in assay [2] and 13.4 µM (active) in assay [3].

Turning to `NC(=O)C#CC(N)=O`, the GI50 in the assay on P388/ADR is 1.02 µM (active); in the assay on SN12K1 it was 12.9 µM (inactive). As for `Cc1ccc(NC(=O)CN2C(=O)S/C(=C\c3cc(C)n(-c4ccc(C(=O)O)cc4)c3C)C2=O)cc1`, in assay [6], the AC50 was 2.97 µM (active). In the case of `O=C(NCC(c1ccco1)N1CCCC1)c1cccc(S(=O)(=O)Nc2ccc(Br)cc2)c1` (stereo not given), in assay [7], the IC50 is 45.8 µM (active). For `O=S1(=O)c2c(cccc2N2CCCCC2)O[C@H](COCc2ccccc2)CN1C1CC1`, the AC50 in [1] is 16.3 µM (active); in [2] it was 4.61 µM (active); in [3], 22.4 µM (active); in [4], 6.53 µM (active). For `COc1ccc(-c2cc(=O)n(-c3ccc([N+](=O)[O-])cc3)[nH]2)cc1`, the results for the AC50 in assay [8] and in [9] were 10 µM (active) and 2.75 µM (active), respectively. Besides, the IC50 was 17.6 µM (active) in assay [10] and 25.2 µM (active) in [11]. Further, the EC50 at Protein RecA is 2.42 µM (active).

As for `C/C(NNC(=O)c1ccccc1O)=C1/C(=O)NC(=O)N(C2CCCCC2)C1=O`, the AC50 in assay [6] was 24.7 µM (active).

`C[C@@H]1CCCCO[C@@H](CN(C)C(=O)Nc2ccc(C(F)(F)F)cc2)[C@@H](C)CN([C@H](C)CO)C(=O)c2cc(NC(=O)Nc3ccccc3)ccc2O1`: the AC50 in [5] is 3.75 µM (active).

For `N#CC1(CCCN2CCCCC2)c2ccccc2CCc2ccccc21`, the IC50 was 35.4 µM (active) in [10] and 43.4 µM (active) in assay [11]. For `COc1ccc(NC(=O)Nc2ccc3c(c2)C(=O)N([C@H](C)CO)C[C@H](C)[C@@H](CN(C)Cc2ccc(Cl)c(Cl)c2)OCCCC[C@@H](C)O3)cc1`, the AC50 in assay [5] was 4.1 µM (active). Take `COCC(=O)N(C)C[C@H]1Oc2cc(C#Cc3cccnc3)ccc2S(=O)(=O)N([C@@H](C)CO)C[C@@H]1C`: the AC50 in [12] was 32.8 µM (active). `Cc1noc(C)c1S(=O)(=O)Nc1ccc2c(c1)CC(=O)N([C@H](C)CO)C[C@H](C)[C@H](CN(C)Cc1ccc(C(=O)Nc3ccccc3N)cc1)O2`: in [5], the AC50 is 2.36 µM (active). For the molecule `O=C(CCCN1CCc2[nH]c3ccc(F)cc3c2C1)c1ccc(F)cc1`, the half-inhibitory concentration (IC50) in assay [7] was 7.9 µM (active).

What is called AC50 is the concentration giving half of the maximal activity seen. The GI50 is the concentration at which growth is held to half of that of the control. As usually defined, the IC50 is the midpoint of a concentration-inhibition curve. As a reminder, the EC50 is the concentration at which the effect is half-maximal.
